Reference: patent US8044069B2, “Compounds as calcium channel blockers” (Abbott Laboratories, priority 2008, dated 2011)

Target: human Cav2.2 (Homo sapiens, UniProt Q00975)
Test: Assessment of calcium channel activity using FLIPR (Ca2+ influx in IMR32 cells)
Format: cell-based
Details: IMR32 cells endogenously expressing human Cav2.2; 60 minute pre-incubation; 2 μM nifedipine; depolarized with 80 mM KCl, 5 mM CaCl2
How it was run: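 FLIPR measured Ca2+ influx triggered by 80 mM KCl depolarization together with a step to 5 mM external CaCl2. Percent inhibition relative to uninhibited activity was fitted sigmoidally for IC50.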

Sequence of human Cav2.2 (Q00975 whole entry): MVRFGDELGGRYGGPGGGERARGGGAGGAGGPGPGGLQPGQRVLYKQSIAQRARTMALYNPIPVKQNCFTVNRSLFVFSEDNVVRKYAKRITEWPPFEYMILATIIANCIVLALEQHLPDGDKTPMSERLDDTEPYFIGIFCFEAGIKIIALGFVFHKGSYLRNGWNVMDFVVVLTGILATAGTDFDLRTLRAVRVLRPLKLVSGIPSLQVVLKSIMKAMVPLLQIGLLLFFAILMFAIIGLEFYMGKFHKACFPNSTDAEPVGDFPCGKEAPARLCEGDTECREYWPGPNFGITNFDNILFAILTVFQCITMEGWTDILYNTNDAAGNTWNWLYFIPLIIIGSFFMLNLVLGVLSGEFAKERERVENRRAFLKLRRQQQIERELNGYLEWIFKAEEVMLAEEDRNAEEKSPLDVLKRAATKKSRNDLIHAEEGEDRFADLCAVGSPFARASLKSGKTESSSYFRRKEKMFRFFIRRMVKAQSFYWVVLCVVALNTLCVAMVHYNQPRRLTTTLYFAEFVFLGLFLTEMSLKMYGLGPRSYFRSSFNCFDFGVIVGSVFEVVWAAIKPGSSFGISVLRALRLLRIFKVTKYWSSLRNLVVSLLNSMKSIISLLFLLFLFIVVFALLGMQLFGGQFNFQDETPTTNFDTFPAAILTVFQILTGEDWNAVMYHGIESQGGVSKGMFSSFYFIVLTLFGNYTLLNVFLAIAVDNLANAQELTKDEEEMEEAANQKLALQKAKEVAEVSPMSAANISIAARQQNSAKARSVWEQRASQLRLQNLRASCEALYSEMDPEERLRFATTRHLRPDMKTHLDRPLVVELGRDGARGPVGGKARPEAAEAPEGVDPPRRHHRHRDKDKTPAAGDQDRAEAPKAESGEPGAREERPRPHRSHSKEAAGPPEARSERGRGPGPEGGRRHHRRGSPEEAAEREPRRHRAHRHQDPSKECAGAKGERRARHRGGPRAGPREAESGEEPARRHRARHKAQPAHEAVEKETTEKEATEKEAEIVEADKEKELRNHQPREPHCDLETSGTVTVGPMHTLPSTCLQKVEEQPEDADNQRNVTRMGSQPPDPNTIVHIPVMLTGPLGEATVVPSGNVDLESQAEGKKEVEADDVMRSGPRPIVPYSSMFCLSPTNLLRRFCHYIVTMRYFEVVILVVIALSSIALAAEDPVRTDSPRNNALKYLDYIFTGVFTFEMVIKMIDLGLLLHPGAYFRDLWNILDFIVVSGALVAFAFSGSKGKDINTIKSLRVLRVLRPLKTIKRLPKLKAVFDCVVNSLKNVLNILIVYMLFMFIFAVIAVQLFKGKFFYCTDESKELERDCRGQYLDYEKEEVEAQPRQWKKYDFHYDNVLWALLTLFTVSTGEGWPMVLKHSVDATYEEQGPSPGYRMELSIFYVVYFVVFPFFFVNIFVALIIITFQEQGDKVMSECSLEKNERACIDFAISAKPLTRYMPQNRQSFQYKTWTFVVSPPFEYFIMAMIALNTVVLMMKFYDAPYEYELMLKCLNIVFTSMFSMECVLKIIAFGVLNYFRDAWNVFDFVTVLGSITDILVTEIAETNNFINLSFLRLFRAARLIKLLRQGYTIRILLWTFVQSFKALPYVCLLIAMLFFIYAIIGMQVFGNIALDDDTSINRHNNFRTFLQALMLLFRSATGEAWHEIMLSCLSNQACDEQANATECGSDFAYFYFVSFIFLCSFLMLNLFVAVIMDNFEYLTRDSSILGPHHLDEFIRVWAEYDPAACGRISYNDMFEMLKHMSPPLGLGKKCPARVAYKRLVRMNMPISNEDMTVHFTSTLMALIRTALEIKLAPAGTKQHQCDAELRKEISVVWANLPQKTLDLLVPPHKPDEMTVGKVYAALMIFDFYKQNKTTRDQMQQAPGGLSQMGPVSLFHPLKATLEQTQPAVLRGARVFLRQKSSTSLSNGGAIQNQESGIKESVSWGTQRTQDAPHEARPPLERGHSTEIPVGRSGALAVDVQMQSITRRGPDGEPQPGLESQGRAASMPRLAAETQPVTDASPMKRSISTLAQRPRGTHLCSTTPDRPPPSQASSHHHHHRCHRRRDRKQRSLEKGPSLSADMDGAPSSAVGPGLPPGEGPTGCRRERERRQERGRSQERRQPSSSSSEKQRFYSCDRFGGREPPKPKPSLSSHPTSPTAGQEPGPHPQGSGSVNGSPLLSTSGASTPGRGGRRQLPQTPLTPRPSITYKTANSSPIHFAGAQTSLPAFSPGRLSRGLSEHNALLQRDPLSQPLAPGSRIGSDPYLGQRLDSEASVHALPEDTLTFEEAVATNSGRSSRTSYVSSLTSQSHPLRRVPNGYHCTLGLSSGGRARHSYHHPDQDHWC
Sequence of human Cav2.2 (P54289 25-951 partner limits assumed): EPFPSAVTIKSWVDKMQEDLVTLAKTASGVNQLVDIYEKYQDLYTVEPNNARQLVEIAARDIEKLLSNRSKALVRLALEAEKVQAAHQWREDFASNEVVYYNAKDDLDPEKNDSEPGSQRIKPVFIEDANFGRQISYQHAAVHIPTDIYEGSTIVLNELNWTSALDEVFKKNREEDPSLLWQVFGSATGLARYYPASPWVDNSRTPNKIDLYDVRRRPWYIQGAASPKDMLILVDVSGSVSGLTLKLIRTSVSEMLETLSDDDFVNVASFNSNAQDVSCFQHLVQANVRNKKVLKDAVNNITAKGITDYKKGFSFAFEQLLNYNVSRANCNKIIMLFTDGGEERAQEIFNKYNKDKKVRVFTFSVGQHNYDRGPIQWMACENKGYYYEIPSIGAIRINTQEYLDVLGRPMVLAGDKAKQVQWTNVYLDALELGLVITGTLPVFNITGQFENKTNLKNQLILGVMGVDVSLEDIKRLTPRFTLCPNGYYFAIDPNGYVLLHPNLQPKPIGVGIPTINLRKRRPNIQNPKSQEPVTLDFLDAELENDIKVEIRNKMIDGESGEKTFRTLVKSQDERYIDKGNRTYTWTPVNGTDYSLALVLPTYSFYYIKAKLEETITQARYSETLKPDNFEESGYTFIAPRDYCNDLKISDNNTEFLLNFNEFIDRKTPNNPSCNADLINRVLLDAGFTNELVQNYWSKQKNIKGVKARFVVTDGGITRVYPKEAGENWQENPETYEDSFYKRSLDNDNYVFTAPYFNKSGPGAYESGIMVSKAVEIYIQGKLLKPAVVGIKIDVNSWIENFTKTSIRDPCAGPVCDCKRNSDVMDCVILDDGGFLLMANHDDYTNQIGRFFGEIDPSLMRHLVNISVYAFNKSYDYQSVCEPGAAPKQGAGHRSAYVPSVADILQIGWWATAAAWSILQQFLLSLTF
Sequence of human Cav2.2 (P54289 952-1103 partner limits assumed): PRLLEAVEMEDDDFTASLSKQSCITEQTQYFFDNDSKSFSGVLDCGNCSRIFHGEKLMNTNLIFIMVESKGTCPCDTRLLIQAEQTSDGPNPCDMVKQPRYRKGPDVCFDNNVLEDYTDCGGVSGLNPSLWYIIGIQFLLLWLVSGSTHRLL
Sequence of human Cav2.2 (P54284 whole entry partner): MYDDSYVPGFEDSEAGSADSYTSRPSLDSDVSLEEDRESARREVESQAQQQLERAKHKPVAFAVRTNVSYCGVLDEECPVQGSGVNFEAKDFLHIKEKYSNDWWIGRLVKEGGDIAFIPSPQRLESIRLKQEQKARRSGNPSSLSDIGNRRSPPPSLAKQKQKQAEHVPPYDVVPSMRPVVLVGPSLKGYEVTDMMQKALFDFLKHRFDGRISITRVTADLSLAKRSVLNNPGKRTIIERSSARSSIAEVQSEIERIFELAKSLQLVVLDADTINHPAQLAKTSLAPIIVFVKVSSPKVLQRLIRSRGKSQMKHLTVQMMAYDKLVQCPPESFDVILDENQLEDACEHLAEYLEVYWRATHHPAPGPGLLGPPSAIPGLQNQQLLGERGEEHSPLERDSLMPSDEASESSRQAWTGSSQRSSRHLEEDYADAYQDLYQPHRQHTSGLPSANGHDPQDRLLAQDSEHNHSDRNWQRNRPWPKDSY

In order of falling IC50:
1. O=C(CN1CCCC(c2ccccc2)C1=O)N1Cc2ccc(F)cc2C1 (stereo not drawn) [Example 95, 1-[2-(5-fluoro-1,3-dihydro-2H-isoindol-2-yl)-2-oxoethyl]-3-phenylpiperidin-2-one]  34800 nM
2. O=C(CN1CCNC(c2ccccc2)C1=O)N1CCN(C(c2ccc(F)cc2)c2ccc(F)cc2)CC1 (stereo not drawn) [Example 103, 1-(2-{4-[bis(4-fluorophenyl)methyl]piperazin-1-yl}-2-oxoethyl)-3-phenylpiperazin-2-one]  10600 nM
3. O=C(CN1CCCC(c2ccccc2)C1=O)NC1(c2ccc(F)cc2)CCC1 (stereo not drawn) [Example 97, N-[1-(4-fluorophenyl)cyclobutyl]-2-(2-oxo-3-phenylpiperidin-1-yl)acetamide]  10000 nM
4. COc1ccc(C2(c3ccc(OC)cc3)CCN(CCNC(=O)c3ccccc3)C2=O)cc1 [Example 112, N-{2-[3,3-bis(4-methoxyphenyl)-2-oxopyrrolidin-1-yl]ethyl}benzamide]  10000 nM
5. O=C(CN1CCCC(c2ccccc2)C1=O)N1CCc2ccc(C(F)(F)F)cc2C1 (stereo not drawn) [Example 96, 1-{2-oxo-2-[7-(trifluoromethyl)-3,4-dihydroisoquinolin-2(1H)-yl]ethyl}-3-phenylpiperidin-2-one]  8900 nM
6. O=C1N(Cc2nc(-c3ccc(C(F)(F)F)cc3)no2)CCCC1(c1ccccc1)c1ccccc1 [Example 99, 3,3-diphenyl-1-({3-[4-(trifluoromethyl)phenyl]-1,2,4-oxadiazol-5-yl}methyl)piperidin-2-one]  8650 nM
7. O=C(CN1CCNC(c2ccccc2)C1=O)N1CCN(C(c2ccccc2)c2ccccc2)CC1 (stereo not drawn) [Example 102, 1-[2-(4-benzhydrylpiperazin-1-yl)-2-oxoethyl]-3-phenylpiperazin-2-one]  8390 nM
8. O=C1N(Cc2nc(-c3ccc(F)cc3)no2)CCCC1(c1ccccc1)c1ccccc1 [Example 100, 1-{[3-(4-fluorophenyl)-1,2,4-oxadiazol-5-yl]methyl}-3,3-diphenylpiperidin-2-one]  5290 nM
9. CN1CCN(CC(=O)N2CCN(C(c3ccc(F)cc3)c3ccc(F)cc3)CC2)C(=O)C1c1ccccc1 (stereo not drawn) [Example 104, 1-(2-{4-[bis(4-fluorophenyl)methyl]piperazin-1-yl}-2-oxoethyl)-4-methyl-3-phenylpiperazin-2-one]  4700 nM
10. O=C1N(CCN2CCN(c3cccc(C(F)(F)F)c3)CC2)CCC1(c1ccc(F)cc1)c1ccc(F)cc1 [Example 111, 3,3-bis(4-fluorophenyl)-1-(2-{4-[3-(trifluoromethyl)phenyl]piperazin-1-yl}ethyl)pyrrolidin-2-one]  3940 nM
11. CN(CCCN1CCCC(c2ccccc2)(c2ccccc2)C1=O)CCc1ccccc1 [Example 117, 1-{3-[methyl(2-phenylethyl)amino]propyl}-3,3-diphenylpiperidin-2-one]  3460 nM
12. COc1ccc(C2(c3ccc(OC)cc3)CCCN(CCN(C)C3Cc4ccccc4C3)C2=O)cc1 [Example 113, 1-{2-[2,3-dihydro-1H-inden-2-yl(methyl)amino]ethyl}-3,3-bis(4-methoxyphenyl)piperidin-2-one]  3190 nM
13. COc1ccc(C2(c3ccc(OC)cc3)CCCN(CCN(C)CCCOc3cc(OC)cc(OC)c3)C2=O)cc1 [Example 115, 1-{2-[[3-(3,5-dimethoxyphenoxy)propyl](methyl)amino]ethyl}-3,3-bis(4-methoxyphenyl)piperidin-2-one]  3120 nM
14. COc1ccc(C2(c3ccc(OC)cc3)CCCN(CCCN(C)CCc3cc(OC)cc(OC)c3)C2=O)cc1 [Example 119, 1-{3-[[2-(3,5-dimethoxyphenyl)ethyl](methyl)amino]propyl}-3,3-bis(4-methoxyphenyl)piperidin-2-one]  2680 nM
15. COc1ccc(CCN(C)CCN2CCCC(c3ccccc3)(c3ccccc3)C2=O)cc1OC [Example 118, 1-{2-[[2-(3,4-dimethoxyphenyl)ethyl](methyl)amino]ethyl}-3,3-diphenylpiperidin-2-one]  2460 nM
16. CN(CCc1ccccc1)CCN1CCCC(c2ccc(F)cc2)(c2ccc(F)cc2)C1=O [Example 122, 3,3-bis(4-fluorophenyl)-1-{2-[methyl(2-phenylethyl)amino]ethyl}piperidin-2-one]  2350 nM
17. O=C(CN1CCCC(c2ccccc2)C1=O)N1CCN(Cc2ccc(Cl)cc2Cl)CC1 (stereo not drawn) [Example 94, 1-{2-[4-(2,4-dichlorobenzyl)piperazin-1-yl]-2-oxoethyl}-3-phenylpiperidin-2-one]  2200 nM
18. COc1ccc(C2(c3ccc(OC)cc3)CCCN(CCCN(C)CCCOc3cc(OC)cc(OC)c3)C2=O)cc1 [Example 116, 1-{3-[[3-(3,5-dimethoxyphenoxy)propyl](methyl)amino]propyl}-3,3-bis(4-methoxyphenyl)piperidin-2-one]  2010 nM
19. COc1ccc(C2(c3ccc(OC)cc3)CCCN(CCN(C)CCc3cccc(OC)c3)C2=O)cc1 [Example 124, 3,3-bis(4-methoxyphenyl)-1-{2-[[2-(3-methoxyphenyl)ethyl](methyl)amino]ethyl}piperidin-2-one]  1900 nM
20. COCc1cc(/C=C/c2ccccc2OCC(O)CN(C)CCN2CCC(c3ccc(F)cc3)(c3ccc(F)cc3)C2=O)on1 (stereo not drawn) [Example 107, 3,3-bis(4-fluorophenyl)-1-{2-[[2-hydroxy-3-(2-{(E)-2-[3-(methoxymethyl)isoxazol-5-yl]vinyl}phenoxy)propyl](methyl)amino]ethyl}pyrrolidin-2-one]  1880 nM
21. CC(C)(C)OC(=O)N1CCN(CC(=O)N2CCN(C(c3ccccc3)c3ccccc3)CC2)C(=O)C1c1ccccc1 (stereo not drawn) [Example 101, tert-butyl 4-[2-(4-benzhydrylpiperazin-1-yl)-2-oxoethyl]-3-oxo-2-phenylpiperazine-1-carboxylate]  1770 nM
22. COc1cc(CN2CCN(CCN3CCC(c4ccc(F)cc4)(c4ccc(F)cc4)C3=O)CC2)cc(OC)c1OC [Example 109, 3,3-bis(4-fluorophenyl)-1-{2-[4-(3,4,5-trimethoxybenzyl)piperazin-1-yl]ethyl}pyrrolidin-2-one]  1760 nM
23. COc1ccc(C2(c3ccc(OC)cc3)CCCN(CCCN(C)CCc3cccc(OC)c3)C2=O)cc1 [Example 125, 3,3-bis(4-methoxyphenyl)-1-{3-[[2-(3-methoxyphenyl)ethyl](methyl)amino]propyl}piperidin-2-one]  1680 nM
24. COc1cccc(CCN(C)CCN2CCCC(c3ccc(F)cc3)(c3ccc(F)cc3)C2=O)c1 [Example 120, 3,3-bis(4-fluorophenyl)-1-{2-[[2-(3-methoxyphenyl)ethyl](methyl)amino]ethyl}piperidin-2-one]  1670 nM
25. COc1cc(OC)cc(OCCCN(C)CCN2CCC(c3ccc(F)cc3)(c3ccc(F)cc3)C2=O)c1 [Example 105, 1-{2-[[3-(3,5-dimethoxyphenoxy)propyl](methyl)amino]ethyl}-3,3-bis(4-fluorophenyl)pyrrolidin-2-one]  1650 nM
26. COc1cccc(CCN(C)CCCN2CCCC(c3ccc(F)cc3)(c3ccc(F)cc3)C2=O)c1 [Example 121, 3,3-bis(4-fluorophenyl)-1-{3-[[2-(3-methoxyphenyl)ethyl](methyl)amino]propyl}piperidin-2-one]  1630 nM
27. CN(CCCN1CCC(c2ccc(F)cc2)(c2ccc(F)cc2)C1=O)C1Cc2ccccc2C1 [Example 114, 1-{3-[2,3-dihydro-1H-inden-2-yl(methyl)amino]propyl}-3,3-bis(4-fluorophenyl)pyrrolidin-2-one]  1530 nM
28. COc1ccc(C2(c3ccc(OC)cc3)CCCN(CCCN(C)Cc3cc(OC)cc(OC)c3)C2=O)cc1 [Example 127, 1-{3-[(3,5-dimethoxybenzyl)(methyl)amino]propyl}-3,3-bis(4-methoxyphenyl)piperidin-2-one]  1530 nM
29. COc1ccc(C2(c3ccc(OC)cc3)CCCN(CCN(C)CCc3ccc(OC)cc3OC)C2=O)cc1 [Example 126, 1-{2-[[2-(2,4-dimethoxyphenyl)ethyl](methyl)amino]ethyl}-3,3-bis(4-methoxyphenyl)piperidin-2-one]  1490 nM
30. COc1cc(CN2CCN(CCCN3CCC(c4ccc(F)cc4)(c4ccc(F)cc4)C3=O)CC2)cc(OC)c1OC [Example 110, 3,3-bis(4-fluorophenyl)-1-{3-[4-(3,4,5-trimethoxybenzyl)piperazin-1-yl]propyl}pyrrolidin-2-one]  1470 nM
31. CN(CCCN1CCCC(c2ccc(F)cc2)(c2ccc(F)cc2)C1=O)CCc1ccccc1 [Example 123, 3,3-bis(4-fluorophenyl)-1-{3-[methyl(2-phenylethyl)amino]propyl}piperidin-2-one]  1450 nM
32. COc1cccc(C2(C(C)C)CCCN(CCCN(C)CCc3ccc(F)cc3)C2=O)c1 (stereo not drawn) [Example 129, 1-{3-[[2-(4-fluorophenyl)ethyl](methyl)amino]propyl}-3-isopropyl-3-(3-methoxyphenyl)piperidin-2-one]  1140 nM
33. COc1ccc(CCN(C)CCN2CCCC(c3cccc(OC)c3)(C(C)C)C2=O)cc1 (stereo not drawn) [Example 130, 3-isopropyl-3-(3-methoxyphenyl)-1-{2-[[2-(4-methoxyphenyl)ethyl](methyl)amino]ethyl}piperidin-2-one]  1130 nM
34. COc1cccc(CCN(C)CCCN2CCCC(c3cccc(OC)c3)(C(C)C)C2=O)c1 (stereo not drawn) [Example 128, 3-isopropyl-3-(3-methoxyphenyl)-1-{3-[[2-(3-methoxyphenyl)ethyl](methyl)amino]propyl}piperidin-2-one]  1120 nM
35. CN(CCN1CCC(c2ccc(F)cc2)(c2ccc(F)cc2)C1=O)CC(O)COc1cccc2ncccc12 (stereo not drawn) [Example 108, 3,3-bis(4-fluorophenyl)-1-{2-[[2-hydroxy-3-(quinolin-5-yloxy)propyl](methyl)amino]ethyl}pyrrolidin-2-one]  1000 nM
36. COc1ccc(C2(c3ccc(OC)cc3)CCN(CCN(C)CC(O)COc3cccc4ncccc34)C2=O)cc1 (stereo not drawn) [Example 106, 1-{2-[[2-hydroxy-3-(quinolin-5-yloxy)propyl](methyl)amino]ethyl}-3,3-bis(4-methoxyphenyl)pyrrolidin-2-one]  730 nM
